Laboratory results taken from US11964971B2, “Methods and compositions for modulating splicing” (Skyhawk Therapeutics, Inc., priority 2019, dated 2024).
Read-outs that look alike come from different tables or passages of the source.

Columns and labels:
SMN protein = SMN protein assay (MSD) in SMA patient fibroblasts (GM03813); format: cell-based, human
Method in brief: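 SMA patient fibroblasts GM03813 (7000 cells/well) treated 48 h with compounds from 2.5 μM to 0.6 nM. Lysate SMN protein quantified by MSD immunoassay against an SMN standard curve (1 to 19.5 μg/ml) on each plate, giving absolute amounts.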

MDR1 (P-gp) [1] = test: MDCK-MDR1 permeability assay, blood-brain-barrier penetration potential; conditions: dog, MDCK-MDR1, pH 7.4, MDCK-MDR1 Efflux Ratio
[2] = system: MDR1-MDCK cell monolayers; test: as above; conditions: for MDCK-MDR1 Efflux Ratio: dog, MDCK-MDR1, 120 min, 5 μM, pH 7.4
MDR1 [3] = test: as above; conditions: dog, MDCK-MDR1, pH 7.4
[4] = system: MDR1-MDCK cell monolayers; conditions: dog, MDCK-MDR1, 120 min, 5 μM, pH 7.4
MDR1 (P-gp) [5] = test: in vitro; conditions: dog, MDCK-MDR1, pH 7.4
MDR1 [6] = test: in vitro; conditions: dog; for Papp A→B at 120 min, 5 μM: MDCK-MDR1, pH 7.4, MDCK-MDR1: Papp A-B (10^−6, cm/s); for Papp B→A at 120 min, 5 μM: MDCK-MDR1, pH 7.4, MDCK-MDR1: Papp B-A (10^−6, cm/s)
SMN FL and SMN Δ7 = test: Quantitative splicing assay (SMN) in SMA patient fibroblasts (GM03813); format: cell-based; conditions: Homo sapiens, Fibroblast; class symbol; read-out: SMN2 Splicing FL EC50 (nM)*
Protocol: Spinal muscular atrophy (SMA) patient fibroblasts (GM03813, Coriell) are plated in 96-well plates at 50,000 cells/well. […] Treated cells are lysed and cDNA synthesized using the Fast Advanced Cells-to-Ct kit (Thermofisher A35378) according to the manufacturer's instructions. 2 μL of each cDNA are used in qPCR reactions. […] Reactions are run in a Quant Studio 6 qPCR instrument with default settings.

Structure (SMILES) | EC50 (SMN protein) | efflux ratio at 120 min, 5 μM (MDR1 (P-gp) [1]) | MDCK-MDR1: % Recov A-B (%) [2] | MDCK-MDR1: % Recov B-A (%) [2] | Papp A→B at 120 min, 5 μM (MDR1 [3]) | Papp B→A at 120 min, 5 μM (MDR1 [3]) | MDCK-MDR1: % Recov A-B (%) [4] | MDCK-MDR1: % Recov B-A (%) [4] | efflux ratio at 120 min, 5 μM (MDR1 (P-gp) [5]) | Papp A→B at 120 min, 5 μM (MDR1 [6]) | Papp B→A at 120 min, 5 μM (MDR1 [6]) | MDCK-MDR1: Papp A-B (10^−6, cm/s) [4] | MDCK-MDR1: Papp B-A (10^−6, cm/s) [4] | MDCK-MDR1 Efflux Ratio [2] | EC50 (SMN FL and SMN Δ7)
CN(c1cnc(-c2ccc(-c3cn[nH]c3)cc2O)cn1)[C@@H]1C[C@@]2(C)CC[C@](C)(N2)[C@@H]1F [Compound 22E1, 2-(5-(((1S,2R,3R,5R)-2-fluoro-1,5-dimethyl-8-azabicyclo[3.2.1]octan-3-yl)(methyl)amino)pyrazin-2-yl)-5-(1H-pyrazol-4-yl)phenol] | 501 to 10000 nM | 10 | 63% | 78% | 4.14 ×10⁻⁶ cm/s | 39.8 ×10⁻⁶ cm/s |  |  |  |  |  |  |  |  | 
CNC(=O)/C=C/c1cc(O)c(-c2cnc(N(C3CC3)[C@H]3C[C@]4(C)CC[C@@](C)(N4)[C@H]3F)cn2)cc1F (single isomer, unassigned) [Compound 79E2] |  |  |  |  |  |  | 91% | 89% | 26 | 2.05 ×10⁻⁶ cm/s | 52.7 ×10⁻⁶ cm/s |  |  |  | 
COc1cc(-c2cc(O)c(-c3cnc(N(C)[C@@H]4C[C@@]5(C)CC[C@](C)(N5)[C@@H]4F)cn3)cc2F)cnn1 (single isomer, unassigned) [Compound 64E2] | 101 to 500 nM |  |  |  |  |  | 69% | 78% |  |  |  | 4.1 10^−6, cm/s | 44.1 10^−6, cm/s | 11 | 
CN(c1cnc(-c2ccc(-c3cn[nH]c3)cc2O)cn1)[C@H]1C[C@]2(C)CC[C@@](C)(N2)[C@H]1F [Compound 22E2, 2-(5-(((1R,2S,3S,5S)-2-fluoro-1,5-dimethyl-8-azabicyclo[3.2.1]octan-3-yl)(methyl)amino)pyrazin-2-yl)-5-(1H-pyrazol-4-yl)phenol] | 501 to 10000 nM | 10 | 66% | 81% | 3.49 ×10⁻⁶ cm/s | 34.5 ×10⁻⁶ cm/s |  |  |  |  |  |  |  |  | 
CN(c1cnc(-c2cc(F)c(-c3ccn(C)c(=O)c3)cc2O)cn1)[C@@H]1C[C@@]2(C)CC[C@](C)(N2)[C@@H]1F [Compound 62E1, 4-(2-fluoro-4-(5-(((1S,2R,3R,5R)-2-fluoro-1,5-dimethyl-8-azabicyclo[3.2.1]octan-3-yl)(methyl)amino)pyrazin-2-yl)-5-hydroxyphenyl)-1-methylpyridin-2(1H)-one] | 501 to 10000 nM | 11 |  |  |  |  |  |  |  | 2.82 ×10⁻⁶ cm/s | 30.7 ×10⁻⁶ cm/s | 2.88 10^−6, cm/s | 41.5 10^−6, cm/s | 14 | 
CN(c1cnc(-c2cc(F)c(-c3cnn(C)c3)cc2O)cn1)[C@H]1C[C@@H]2CCC(N2)[C@H]1F (single isomer, unassigned) [Compound 17E2] | 0.01 to 15 nM |  |  |  |  |  | 24% | 52% |  |  |  | 4.68 10^−6, cm/s | 18 10^−6, cm/s | 4 | 101 to 500 nM
